Assay results as given in patent publication US20240360166A1, “SALTS AND SOLID FORMS OF A COMPOUND HAVING GLP-1 AGONIST ACTIVITY” (Gasherbrum Bio, Inc., priority 2022, published 2024).
Entries after “also recorded” stand apart in the source; their conditions may differ.

Columns and labels:
[1] = Solid stability evaluation of free acid Form A, Na salt Form A and L-arginine salt Form A, 2 weeks (Table 5-5); format: physicochemical; conditions: for Form change: XRPD
[2] = Kinetic solubility in water, pH buffers and bio-relevant media at 37° C. (Table 5-6); format: physicochemical; conditions: for pH: pH of solubility sample; for XRPD: residual solids
Experimental: Around 10 mg material was weighed into 5 mL water, buffer solution, SGF, FaSSIF or FeSSIF^1 followed by rolling at 25 rpm at 37° C. for 0.5 and 1 h. At each time point, around 0.8 mL suspension was sampled out for centrifugation and filtration. Solids were tested by XRPD.

[3] = Hygroscopicity, DVS evaluation of free acid Form A and re-prepared salts (Table 5-7); format: physicochemical; conditions: for Form change after DVS: XRPD after DVS, * converted to a potential isomorphic hydrate by XRPD
Experimental: XRPD characterization was performed for the samples after DVS test.
DVS was measured via a SMS (Surface Measurement Systems) DVS Intrinsic. The relative humidity at 25° C. were calibrated against deliquescence point of LiCl, Mg(NO3)2 and KCl.

[4] = Dog pharmacokinetic study, Free Acid Form A, sodium salt Form A, L-arginine salt Form A in oral HPMC capsule (Table 8-5); format: in vivo; conditions: 2 mg/kg, male Beagle dogs
Experimental: The objective of this study was to characterize the pharmacokinetics (PK) of Compound I in male Beagle dogs after oral (PO) or IV administration. […] The dose was administered orally by gavage to dogs. […] The plasma concentration of Compound I was determined by liquid chromatography with mass spectrometric detection (LC-MS/MS).

[5] = 25° C./92.5% RH, open container, 2 weeks
[6] = 40° C./75% RH, open container, 2 weeks
[7] = 60° C., tight container, 2 weeks
[8] = 50 mM acetate buffer (4.5), 0.5 h, 37° C.
[9] = alkaline borate buffer (8), 0.5 h, 37° C.
[10] = alkaline borate buffer (8), 1.0 h, 37° C.

Substance: 3-((1S,2S)-1-(2-((S)-3-(3-(4-(diethylphosphoryl)-3-(methylamino)phenyl)-2-oxo-2,3-dihydro-1H-imidazol-1-yl)-2-(4-fluoro-3,5-dimethylphenyl)-4-methyl-4,5,6,7-tetrahydro-2H-pyrazolo[4,3-c]pyridine-5-carbonyl)-5-(tetrahydro-2H-pyran-4-yl)-1H-indol-1-yl)-2-methylcyclopropyl)-1,2,4-oxadiazol-5(4H)-one sodium salt Form A [Compound I sodium salt Form A]
- Chemical and physical stability ([1]; 25° C./92.5% RH open, 40° C./75% RH open, 60° C. tight container, over 2 weeks, listed as Na salt Form A): chemically stable in these conditions but physically unstable at 25° C./92.5% RH and 40° C./75% RH
- Color Change [1, 5]: No
- HPLC purity (%) [1, 5]: 99.1%
- HPLC purity/initial (%) [1, 5]: >100%
- Form change ([1]; 25° C./92.5% RH, open container, 2 weeks, * Likely isomorphic hydrate): Yes*
- Color Change [1, 6]: No
- HPLC purity (%) [1, 6]: 99.1%
- HPLC purity/initial (%) [1, 6]: >100%
- Form change ([1]; 40° C./75% RH, open container, 2 weeks, * Likely isomorphic hydrate): Yes*
- Color Change [1, 7]: No
- HPLC purity (%) [1, 7]: 99.1%
- HPLC purity/initial (%) [1, 7]: >100%
- Form change [1, 7]: No
- HPLC purity (%) ([1]; Initial): 99.0%
- Solubility ([2]; 50 mM acetate buffer (4.5), 0.5 h, 37° C., LOQ = 0.500 μg/mL): <LOQ
- pH [2, 8]: (4.60)
- XRPD [2, 8]: AF^2
- Solubility ([2]; 50 mM acetate buffer (4.5), 1.0 h, 37° C., LOQ = 0.500 μg/mL): <LOQ
- pH ([2]; 50 mM acetate buffer (4.5), 1.0 h, 37° C.): (4.55)
- Solubility ([2]; 0.1N HCl (1.2), 0.5 h, 37° C., LOQ = 0.500 μg/mL): <LOQ
- pH ([2]; 0.1N HCl (1.2), 0.5 h, 37° C.): (0.95)
- Solubility ([2]; 0.1N HCl (1.2), 1.0 h, 37° C., LOQ = 0.500 μg/mL): <LOQ
- pH ([2]; 0.1N HCl (1.2), 1.0 h, 37° C.): (1.06)
- XRPD ([2]; 0.1N HCl (1.2), 1.0 h, 37° C.): AF^1
- Kinetic solubility, comparison between forms ([2]; 37° C., 0.5 and 1 h): higher than that of L-arginine salt Form A
- Solubility ([2]; FaSSIF (6.5), 0.5 h, 37° C.): 9.1 µg/mL
- pH ([2]; FaSSIF (6.5), 0.5 h, 37° C.): (6.53)
- XRPD ([2]; FaSSIF (6.5), 0.5 h, 37° C.): AF^3
- Solubility ([2]; FaSSIF (6.5), 1.0 h, 37° C.): 10.2 µg/mL
- pH ([2]; FaSSIF (6.5), 1.0 h, 37° C.): (6.60)
- XRPD ([2]; FaSSIF (6.5), 1.0 h, 37° C.): AF^3
- Solubility ([2]; FeSSIF (5.0), 0.5 h, 37° C.): 42.7 µg/mL
- pH ([2]; FeSSIF (5.0), 0.5 h, 37° C.): (4.98)
- Solubility ([2]; FeSSIF (5.0), 1.0 h, 37° C.): 40.9 µg/mL
- pH ([2]; FeSSIF (5.0), 1.0 h, 37° C.): (5.06)
- XRPD ([2]; FeSSIF (5.0), 1.0 h, 37° C.): AF^1
- Solubility ([2]; H2O, 0.5 h, 37° C.): 1907.0 µg/mL
- pH ([2]; H2O, 0.5 h, 37° C.): (8.50)
- Solubility ([2]; H2O, 1.0 h, 37° C.): 1742.2 µg/mL
- pH ([2]; H2O, 1.0 h, 37° C.): (8.34)
- Solubility ([2]; SGF (2.0), 0.5 h, 37° C.): 14.2 µg/mL
- pH ([2]; SGF (2.0), 0.5 h, 37° C.): (2.13)
- XRPD ([2]; SGF (2.0), 0.5 h, 37° C.): AF^1
- Solubility ([2]; SGF (2.0), 1.0 h, 37° C.): 15.8 µg/mL
- pH ([2]; SGF (2.0), 1.0 h, 37° C.): (2.17)
- XRPD ([2]; SGF (2.0), 1.0 h, 37° C.): AF^1
- Solubility [2, 9]: 179.0 µg/mL
- pH [2, 9]: (7.99)
- XRPD [2, 9]: AF^3
- Solubility [2, 10]: 164.2 µg/mL
- pH [2, 10]: (7.99)
- XRPD [2, 10]: AF^3
- Disproportionation after solubility study (XRPD) ([2]; solids after kinetic solubility test): disproportionation was observed
- Water uptake (@ 25° C./40-95% RH) ([3]; DVS, 25° C., 40-95% RH): 10.4%
- Form change after DVS ([3]; listed as Compound I Na salt Form A): converted to a new form; also recorded: form change was observed
- Form change after DVS ([3]; listed as Na salt Form A): Yes*
- Tmax (median) [4]: 2.0 h
- Tmax (range) [4]: [1.0-2.0] h
- Cmax ([4]; mean): 64.1 ng/mL
- AUClast ([4]; mean, t = 8 h): 198 h*ng/m:
